We go through 27 compounds from patent publication US9249085B2, “Aniline derivatives, their preparation and their therapeutic application” (FOVEA PHARMACEUTICALS, priority 2011, dated 2016).

The assay concerns the target recombinant human prostanoid EP2 receptor (Homo sapiens (Human), UniProt P43116). The assay can be described thus: Human prostanoid EP2 receptor cellular functional assay (cAMP, HTRF). The conditions noted are these: for EC50: CHO cells expressing recombinant human EP2, cAMP by HTRF, 30 min, 37° C., read-out: In vitro functional assay EP2 (h) EC50; for In vitro functional assay EP2 (h) % response: percent of control specific agonist response (10 μM PGE2). In kind it is cell-based. Here is the method: Test 1.2: Human Prostanoid EP2 Receptor Cellular Functional Assay
Human CHO cells expressing the recombinant human prostanoid EP2 receptor were suspended in assay medium (HBSS buffer (Invitrogen) containing 20 mM HEPES (pH7.4) and 500 μM isobutyl-methylxanthine IBMX) and plated out to yield approximately 1×10^4 cells/well in a 96-well. Following this, cells were incubated with agonists for 30 min in the presence of the test compounds. For stimulated control measurements, separate assay wells contain 10 μM PGE2 (control specific agonist). All incubations were carried out at 37° C. in a 5% CO2 atmosphere. Following incubation, the amount of cAMP in each well was determined by HTRF method. The cells are lysed and the fluorescence acceptor (D2-labeled cAMP) and fluorescence donor (anti-cAMP antibody labeled with europium cryptate) are added. After 60 min at room temperature, the fluorescence transfer is measured at λ ex=337 nm and λ em=620 and 665 nm using a microplate reader (Rubystar, BMG).
The cAMP concentration is determined by dividing the signal measured at 665 nm by that measured at 620 nm (ratio).
The standard reference agonist PGE2 was tested at several concentrations to generate a concentration-response curve to determined EC50.
Analysis and Expression of Results
The results are expressed as a percent of control specific agonist response ((measured specific response/control specific agonist response)×100) obtained in the presence of the test compounds. The EC50 values (concentration producing a half-maximal specific response) were determined by non-linear regression analysis of the concentration-response curves generated with mean replicate values using Hill equation curve fitting (Y=D+[(A−D)/(1+(C/C50)nH)], where Y=specific response, D=minimum specific response, A=maximum specific response, C=compound concentration, and C50=EC50 and nH=slope factor). This analysis was performed using a software developed at Cerep (Hill software) and validated by comparison with data generated by the commercial software SigmaPlot® 4.0 for Windows® (© 1997 by SPSS Inc.).

Chain of recombinant human prostanoid EP2 receptor (P43116 whole entry): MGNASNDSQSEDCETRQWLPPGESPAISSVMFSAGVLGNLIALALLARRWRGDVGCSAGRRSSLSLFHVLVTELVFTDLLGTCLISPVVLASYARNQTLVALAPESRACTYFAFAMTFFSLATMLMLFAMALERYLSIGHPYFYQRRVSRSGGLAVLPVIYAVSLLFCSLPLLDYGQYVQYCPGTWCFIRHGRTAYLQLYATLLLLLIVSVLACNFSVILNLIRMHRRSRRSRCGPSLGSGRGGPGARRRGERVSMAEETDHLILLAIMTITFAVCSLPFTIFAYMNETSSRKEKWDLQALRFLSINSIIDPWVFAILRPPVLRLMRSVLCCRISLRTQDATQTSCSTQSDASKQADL

What is called EC50 is the concentration needed to bring the measured effect to its halfway point. As to `Cc1ccc(OCC(=O)O)c(C)c1NCc1cc(O)cc(-c2cccc(F)c2)c1` [I(ao), 2-[3-[[3-(3-fluorophenyl)-5-hydroxy-phenyl]methylamino]-2,4-dimethyl-phenoxy]acetic acid], the EC50 is 1 nM and the “In vitro functional assay EP2 (h) % response” value stood at 76%.

`COc1cc(CNc2c(C)ccc(OCC(=O)O)c2C)cc(-c2cccc(F)c2)c1` [I(ap), 2-[3-[[3-(3-fluorophenyl)-5-methoxy-phenyl]methylamino]-2,4-dimethyl-phenoxy]acetic acid]: the EC50 was determined as 3 nM and the “In vitro functional assay EP2 (h) % response” value came to 89%.

`Cc1cc(-c2ccc(F)c(F)c2)cc(CNc2c(F)ccc(OCC(=O)O)c2F)c1C` [I(aq), 2-[3-[[5-(3,4-difluorophenyl)-2,3-dimethyl-phenyl]methylamino]-2,4-difluoro-phenoxy]acetic acid]: the concentration giving a half-maximal response (EC50) stood at 2 nM and the “In vitro functional assay EP2 (h) % response” value turned out to be 31%.

Take `Cc1cc(-c2cc(F)cc(F)c2)cc(CNc2c(F)ccc(OCC(=O)O)c2F)c1C` [I(ar), 2-[3-[[5-(3,5-difluorophenyl)-2,3-dimethyl-phenyl]methylamino]-2,4-difluoro-phenoxy]acetic acid]: the EC50 was 8 nM and the “In vitro functional assay EP2 (h) % response” value is 130%.

For the compound `Cc1cc(-c2ccccc2)cc(CNc2c(F)ccc(OCC(=O)O)c2F)c1C` [I(au), 2-[3-[(2,3-dimethyl-5-phenyl-phenyl)methylamino]-2,4-difluoro-phenoxy]acetic acid], the EC50 is 15 nM and the “In vitro functional assay EP2 (h) % response” value was found to be 81%.

As to `Cc1c(F)cc(-c2cccc(F)c2)cc1CNc1c(F)ccc(OCC(=O)O)c1C` [I(av), 2-[4-fluoro-3-[[3-fluoro-5-(3-fluorophenyl)-2-methyl-phenyl]methylamino]-2-methyl-phenoxy]acetic acid], the EC50 was determined as 5 nM and the “In vitro functional assay EP2 (h) % response” value was determined as 97%.

On to `O=C(O)COc1ccc(F)c(NCc2cc(-c3cccc(F)c3)ccc2F)c1F` [I(b), 2-[2,4-Difluoro-3-[[2-fluoro-5-(3-fluorophenyl)phenyl]methylamino]phenoxy]acetic acid], for which the EC50 was determined as 28 nM and the “In vitro functional assay EP2 (h) % response” value came to 82%.

In the case of `Cc1ccc(-c2cccc(F)c2)cc1CNc1c(F)ccc(OCC(=O)O)c1F` [I(c), 2-[2,4-Difluoro-3-[[5-(3-fluorophenyl)-2-methyl-phenyl]methylamino]phenoxy]acetic acid], the EC50 is 69 nM and the “In vitro functional assay EP2 (h) % response” value is 66%.

With `Cc1cc(CNc2c(F)ccc(OCC(=O)O)c2F)cc(-c2cccc(F)c2)c1` [I(d), 2-[2,4-Difluoro-3-[[3-(3-fluorophenyl)-5-methyl-phenyl]methylamino]phenoxy]acetic acid], the concentration giving a half-maximal response (EC50) amounted to 35 nM and the “In vitro functional assay EP2 (h) % response” value was 74%.

On to `O=C(O)COc1ccc(F)c(NCc2cccc(-c3cccc(F)c3)c2)c1F` [I(e), 2-[2,4-Difluoro-3-[[3-(3-fluorophenyl)phenyl]methylamino]phenoxy]acetic acid], for which the EC50 stood at 160 nM and the “In vitro functional assay EP2 (h) % response” value was found to be 65%.

Turning to `O=C(O)COc1ccc(F)c(NCc2cc(O)cc(-c3cccc(F)c3)c2F)c1F` [I(f), 2-[2,4-Difluoro-3-[[2-fluoro-3-(3-fluorophenyl)-5-hydroxy-phenyl]methylamino]phenoxy]acetic acid], the 50% effective concentration (EC50) is 160 nM and the “In vitro functional assay EP2 (h) % response” value turned out to be 61%.

`Cc1cc(CNc2c(F)ccc(OCC(=O)O)c2F)c(F)c(-c2cccc(F)c2)c1` [I(g), 2-[2,4-difluoro-3-[[2-fluoro-3-(3-fluorophenyl)-5-methyl-phenyl]methylamino]phenoxy]acetic acid]: the EC50 amounted to 55 nM and the “In vitro functional assay EP2 (h) % response” value is 80%.

With `Cc1cc(-c2cccc(F)c2)cc(CNc2c(F)ccc(OCC(=O)O)c2F)c1F` [I(h), 2-[2,4-difluoro-3-[[2-fluoro-5-(3-fluorophenyl)-3-methyl-phenyl]methylamino]phenoxy]acetic acid], the EC50 was determined as 13 nM and the “In vitro functional assay EP2 (h) % response” value stood at 88%.

Consider `Cc1ccc(OCC(=O)O)c(F)c1NCc1cc(-c2cccc(F)c2)ccc1F` [I(i), 2-[2-Fluoro-3-[[2-fluoro-5-(3-fluorophenyl)phenyl]methylamino]-4-methyl-phenoxy]acetic acid], for which the EC50 turned out to be 99 nM and the “In vitro functional assay EP2 (h) % response” value was found to be 73%.

In the case of `Cc1ccc(OCC(=O)O)c(C)c1NCc1cc(-c2cccc(F)c2)ccc1F` [I(j), 2-[3-[[2-Fluoro-5-(3-fluorophenyl)phenyl]methylamino]-2,4-dimethyl-phenoxy]acetic acid], the EC50 was 26 nM and the “In vitro functional assay EP2 (h) % response” value stood at 80%.

On to `O=C(O)COc1ccc(F)c(NCc2cc(-c3cccc(F)c3)ccc2Cl)c1F` [I(l), 2-[3-[[2-Chloro-5-(3-fluorophenyl)phenyl]methylamino]-2,4-difluoro-phenoxy]acetic acid], for which the EC50 stood at 24 nM and the “In vitro functional assay EP2 (h) % response” value is listed as 76%.

As for `Cc1c(OCC(=O)O)ccc(F)c1NCc1cc(-c2cccc(F)c2)ccc1F` [I(m), 2-[4-Fluoro-3-[[2-fluoro-5-(3-fluorophenyl)phenyl]methylamino]-2-methyl-phenoxy]acetic acid], the EC50 was 10 nM and the “In vitro functional assay EP2 (h) % response” value was found to be 89%.

Turning to `O=C(O)COc1ccc(F)c(NCc2cc(F)cc(-c3cccc(F)c3)c2)c1F` [I(n), 2-[2,4-Difluoro-3-[[3-fluoro-5-(3-fluorophenyl)phenyl]methylamino]phenoxy]acetic acid], the concentration for a half-maximal effect (EC50) turned out to be 52 nM and the “In vitro functional assay EP2 (h) % response” value is 86%.

With `O=C(O)COc1ccc(F)c(NCc2cc(-c3cccc(F)c3)ccc2F)c1Cl` [I(o), 2-[2-Chloro-4-fluoro-3-[[2-fluoro-5-(3-fluorophenyl)phenyl]methylamino]phenoxy]acetic acid], the EC50 amounted to 34 nM and the “In vitro functional assay EP2 (h) % response” value came out at 74%.

As for `O=C(O)COc1ccc(F)c(NCc2cc(O)cc(-c3cccc(F)c3)c2)c1F` [I(p), 2-[2,4-Difluoro-3-[[3-(3-fluorophenyl)-5-hydroxy-phenyl]methylamino]phenoxy]acetic acid], the EC50 was determined as 17 nM and the “In vitro functional assay EP2 (h) % response” value turned out to be 70%.

As to `COc1cc(CNc2c(F)ccc(OCC(=O)O)c2F)cc(-c2cccc(F)c2)c1` [I(q), 2-[2,4-Difluoro-3-[[3-(3-fluorophenyl)-5-methoxy-phenyl]methylamino]phenoxy]acetic acid], the EC50 was found to be 18 nM and the “In vitro functional assay EP2 (h) % response” value is recorded as 70%.

With `O=C(O)COc1ccc(F)c(NCc2c(F)ccc(-c3cccc(F)c3)c2F)c1F` [I(s), 2-[3-[[2,6-Difluoro-3-(3-fluorophenyl)phenyl]methylamino]-2,4-difluoro-phenoxy]acetic acid], the EC50 came out at 17 nM and the “In vitro functional assay EP2 (h) % response” value is 72%.

In the case of `COc1c(C)cc(-c2cccc(F)c2)cc1CNc1c(F)ccc(OCC(=O)O)c1F` [I(t), 2-[2,4-Difluoro-3-[[5-(3-fluorophenyl)-2-methoxy-3-methyl-phenyl]methylamino]phenoxy]acetic acid], the EC50 came to 17 nM and the “In vitro functional assay EP2 (h) % response” value worked out at 73%.

As for `Cc1cc(-c2cccc(F)c2)cc(CNc2c(F)ccc(OCC(=O)O)c2F)c1O` [I(u), 2-[2,4-Difluoro-3-[[5-(3-fluorophenyl)-2-hydroxy-3-methyl-phenyl]methylamino]phenoxy]acetic acid], the EC50 was found to be 9 nM and the “In vitro functional assay EP2 (h) % response” value was 78%.

`Cc1cc(-c2cccc(F)c2)cc(CNc2c(F)ccc(OCC(=O)O)c2F)c1C` [I(v), 2-[2,4-Difluoro-3-[[5-(3-fluorophenyl)-2,3-dimethyl-phenyl]methylamino]phenoxy]acetic acid]: the EC50 came out at 2 nM and the “In vitro functional assay EP2 (h) % response” value came out at 85%.

In the case of `O=C(O)COc1ccc(F)c(NCc2cc(-c3ccc(F)c(F)c3)ccc2F)c1F` [I(w), 2-[3-[[5-(3,4-difluorophenyl)-2-fluoro-phenyl]methylamino]-2,4-difluoro-phenoxy]acetic acid], the concentration for a half-maximal effect (EC50) was 14 nM and the “In vitro functional assay EP2 (h) % response” value was found to be 40%.

As to `N#Cc1cc(CNc2c(F)ccc(OCC(=O)O)c2F)cc(-c2cccc(F)c2)c1` [I(x), 2-[3-[[3-cyano-5-(3-fluorophenyl)phenyl]methylamino]-2,4-difluoro-phenoxy]acetic acid], the EC50 worked out at 27 nM and the “In vitro functional assay EP2 (h) % response” value was 45%.
